Where “and” joins values, the source holds several entries; their conditions need not be identical. Equal values may be shown once.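 Five concentrations, 48 hours, 96-well plates. GI50 is the concentration that inhibits growth by half. TGI denotes the concentration required for complete inhibition of growth.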
How the values were obtained:
Experiment in all cases: NCI-60 cell line screen, 48 h
SK-MEL-28 melanoma = test system: SK-MEL-28 melanoma
UACC-257 melanoma = test system: UACC-257 melanoma
SF-268 CNS = test system: SF-268 CNS
HOP-62 NSCLC = test system: HOP-62 NSCLC
M14 melanoma = test system: M14 melanoma
HT29 colon = test system: HT29 colon
HCC-2998 colon = test system: HCC-2998 colon
OVCAR-8 ovarian = test system: OVCAR-8 ovarian
MALME-3M melanoma = test system: MALME-3M melanoma
SF-539 CNS = test system: SF-539 CNS

SMILES | GI50 (SK-MEL-28 melanoma) | TGI (SK-MEL-28 melanoma) | GI50 (UACC-257 melanoma) | TGI (UACC-257 melanoma) | GI50 (SF-268 CNS) | TGI (SF-268 CNS) | GI50 (HOP-62 NSCLC) | TGI (HOP-62 NSCLC) | GI50 (M14 melanoma) | TGI (M14 melanoma) | GI50 (HT29 colon) | TGI (HT29 colon) | GI50 (HCC-2998 colon) | TGI (HCC-2998 colon) | GI50 (OVCAR-8 ovarian) | TGI (OVCAR-8 ovarian) | GI50 (MALME-3M melanoma) | TGI (MALME-3M melanoma) | GI50 (SF-539 CNS) | TGI (SF-539 CNS)
COc1cc(C(=O)NN=C2c3ccccc3-c3ccccc32)cc(OC)c1OC | 6.26 µM | > 100 µM | 3.33 µM | 34.2 µM | 4.57 µM | 27.7 µM | 5.15 µM | 35.9 µM | 2.58 µM | 92.4 µM | 2.32 µM | 56.6 µM | 10.5 µM | 57.8 µM | 4.93 µM | 39 µM | 2.45 µM | 16.7 µM | 2.1 µM | 5.32 µM
CSC1=Nc2ccccc2N=C(c2ccccc2)C1 |  | > 100 µM |  | > 100 µM |  | > 100 µM |  | > 100 µM |  | > 100 µM |  | > 100 µM |  | > 100 µM |  | > 100 µM |  | > 100 µM |  | > 100 µM
Cc1cc(Cl)cc2c1NC(=O)C2(O)C(C(=O)c1ccccc1)c1ccccc1 (configuration not stated) | 96.6 µM and 24.5 µM | > 100 µM and 51 µM | 57 µM and 19.9 µM | > 100 µM and 52.1 µM | 84.3 µM and 34.8 µM | > 100 µM and 95.3 µM |  | > 100 µM | 90.9 µM and 22.6 µM | > 100 µM and 55.5 µM |  | > 100 µM |  | > 100 µM and 60.4 µM | > 100 µM and 32.5 µM | > 100 µM | 91.5 µM and 22.7 µM | > 100 µM and 49.2 µM |  | 39.7 µM
Cc1cnc(-c2ccc(-c3ccc(NC(=O)Nc4c(F)cc(F)cc4F)cc3F)c3c2C(=O)NC3)[nH]1 | 1.16 µM and 0.642 µM | 9.69 µM and 5.48 µM | 0.333 µM and 0.97 µM | 10.2 µM and 14.5 µM | 1.17 µM and 3.25 µM | 20.6 µM and 22.9 µM |  | 3.07 µM and 11 µM | 0.0392 µM and 0.211 µM | 1.99 µM and 17.1 µM | 0.431 µM and 0.359 µM | 2.66 µM and 2.45 µM | 2.01 µM and 1.61 µM | > 100 µM and 11.6 µM | 1.25 µM and 2.08 µM | 3.77 µM and 9.45 µM | 0.124 µM and 0.106 µM | 2.37 µM and 2.8 µM | 0.709 µM | 18.9 µM
COc1ccc(/C=C\c2cc(OC)c(OC)c(OC)c2)c(NS(=O)(=O)c2ccc(F)cc2)c1O | 0.484 µM | > 100 µM | 20.5 µM | > 100 µM | 0.224 µM | > 100 µM | 0.61 µM | > 100 µM | 0.0326 µM | > 100 µM | 2.28 µM | 20.5 µM | 0.169 µM | 6.9 µM | 0.128 µM | > 100 µM | 10.2 µM | > 100 µM | 0.0622 µM | 0.192 µM
COc1cc(CC(=O)O)c([N+](=O)[O-])cc1OC |  | > 100 µM |  | > 100 µM |  | > 100 µM |  | > 100 µM |  | > 100 µM |  | > 100 µM |  | > 100 µM |  | > 100 µM |  | > 100 µM |  | > 100 µM
Cn1c(=O)c(Oc2ccc(F)cc2F)cc2cnc(NCC(C)(C)O)nc21 | > 25 µM | > 25 µM | > 25 µM | > 25 µM | > 25 µM | > 25 µM | > 25 µM | > 25 µM | > 25 µM | > 25 µM | > 25 µM | > 25 µM | > 25 µM | > 25 µM | > 25 µM | > 25 µM | > 25 µM | > 25 µM | > 25 µM | > 25 µM
CC(=O)O[C@@H]1CC[C@@]2(C)C(=O)C34C[C@@]5(C)C([C@@H](C)CCCC(C)C)CCC5(C)[C@](O)(O3)C(=O)[C@H]4C2C1(C)C (some centres not stated) |  | 35.6 µM |  | 32.3 µM |  | 34.9 µM |  | 33.1 µM |  | 25.8 µM |  | 25.6 µM |  | 23.5 µM |  | 32.9 µM |  | 33.2 µM |  | 39.4 µM
COC(=O)Nc1nc2ccc(C(=O)c3ccc(F)cc3)cc2[nH]1 | 0.556 µM | > 100 µM | 68 µM | > 100 µM | 0.644 µM | 7.65 µM | 0.682 µM | 29.1 µM | 0.173 µM | > 100 µM | 0.0785 µM | > 100 µM | 0.173 µM |  | 0.639 µM | > 31.6 µM | 0.193 µM | 26.9 µM | 0.242 µM | 0.778 µM
N#CCCN(c1ccc(C=O)cc1)S(=O)(=O)c1ccccc1 |  | > 100 µM |  | > 100 µM |  | > 100 µM |  | > 100 µM |  | > 100 µM |  | > 100 µM |  | > 100 µM |  | > 100 µM |  | > 100 µM |  | > 100 µM
CCCCCCCCCC[C@H](O)[C@H]1CC[C@@H]([C@@H](O)CC[C@H](O)[C@@H]2CCC(CCCCCCC[C@@H](O)CC3=C[C@H](C)OC3=O)O2)O1 (some centres not stated) | 7.62 µM | 5.44 µM and 39 µM | 0.921 µM | 4.47 µM and 13.8 µM | 8.17 µM |  | 4.55 µM | 3.28 µM and 19.4 µM | 2.73 µM | 2.93 µM and 9.75 µM |  | 3.5 µM |  | 19 µM | 4.09 µM |  |  | 12.3 µM | 4.33 µM | 3.86 µM and 25.8 µM
CC1[C@@H]2CC=C3[C@H]4CCC5Cc6nc7c(nc6C[C@@]5(C)C4CC(=O)[C@]32CO[C@]12OC(C)(C)CC2O)CC1CC[C@@H]2C3=C[C@H]4O[C@@]5(O[C@@](C)(CO)C[C@@H]5O)C(C)[C@@]4(O)[C@]3(C)[C@@H](O)CC2[C@]1(C)C7 (some centres not stated) | 0.00062 µM | 0.00273 µM | 0.00426 µM | 0.0211 µM | 0.0011 µM and 0.00472 µM | 0.253 µM and 0.441 µM | 0.00024 µM and 0.000365 µM | 0.00248 µM and 0.00609 µM | 0.00131 µM | 0.0124 µM | 0.00282 µM and 0.00152 µM | 0.0487 µM and 0.027 µM | 0.292 µM | 0.912 µM and > 3.65 µM |  | 0.745 µM and > 3.65 µM | 0.00807 µM and 0.00577 µM | 0.145 µM and 0.0648 µM | 0.00016 µM and 0.000365 µM | 
Cc1c(Cl)c(C)c(Cl)c(O)c1Cl |  | > 100 µM |  | 87 µM |  | > 100 µM |  | > 100 µM |  | 49.1 µM |  | > 100 µM |  | 50.6 µM |  | > 100 µM |  | 54.3 µM |  | > 100 µM
COC(=O)c1c2c(c(C)[n+]([O-])c1C)C(=O)C(NCc1ccc(O)cc1)=CC2=O | 2.26 µM | 4.36 µM | 0.556 µM | 1.97 µM | 1.64 µM | 3.53 µM | 1.96 µM | 4.57 µM | 1.55 µM | 3.12 µM | 0.715 µM | 4.84 µM | 1.46 µM | 3.23 µM | 1.08 µM | 6.47 µM | 0.256 µM | 0.93 µM | 1.68 µM | 3.07 µM
C[C@]12CCc3nn(-c4ccccc4)nc3C1CC[C@@H]1C2CC[C@]2(C)C(=O)CCC12 (some centres not stated) |  | > 100 µM |  | > 100 µM |  | > 100 µM |  | > 100 µM |  | > 100 µM |  | > 100 µM |  | > 100 µM |  | > 100 µM |  | > 100 µM |  | > 100 µM
Cc1cc(C)c2c(c1)N(C)c1ncnc(-n3cnc4cc(C)ccc43)c1CC2C (configuration not stated) | 5.61 µM | 20.7 µM | 11.5 µM | 38.5 µM | 6.04 µM | > 100 µM | 4.71 µM | 30 µM | 2.6 µM | 11.2 µM | 3.13 µM | 10.5 µM | 4.05 µM | 61.8 µM | 3.79 µM | 20 µM | 3.61 µM | 17.3 µM | 2.74 µM | 9.16 µM
O=C(/C=C/C=C/c1ccc2c(c1)OCO2)N/N=C\c1ccc(O)cc1O | 2.97 µM | 19.6 µM | 3.06 µM | 15.9 µM | 1.73 µM | 17.1 µM | 1.61 µM | 15.7 µM | 1.67 µM | 11.5 µM | 3.78 µM | 26.2 µM | 2.44 µM | 18.3 µM | 2.67 µM | 29.9 µM | 2.03 µM | 10.5 µM | 2.7 µM | 11.6 µM
C=CC(=O)N1CCC[C@@H](n2nc(-c3ccc(Oc4ccccc4)cc3)c3c(N)ncnc32)C1 | > 10 µM | > 10 µM | > 10 µM | > 10 µM | > 4.98 µM | > 10 µM | > 10 µM | > 10 µM | > 7.36 µM | > 10 µM | > 7.23 µM | > 10 µM | > 10 µM | > 10 µM | > 8.16 µM | > 10 µM | > 10 µM | > 10 µM | > 6.36 µM | > 10 µM
Nc1n[nH]c2ccc([C@@H]3Nc4ccc5cn[nH]c5c4[C@H]4C5CCC(C5)[C@@H]34)cc12 (some centres not stated) | 1.05 µM | > 100 µM | 12.5 µM | > 100 µM | 2.59 µM | > 100 µM | 0.485 µM | > 70 µM | 0.317 µM | > 100 µM | 0.382 µM | > 100 µM | 0.962 µM | > 50.2 µM | 0.606 µM | > 100 µM | 0.522 µM | > 100 µM | 0.299 µM | 3.38 µM
O=C(CC(=O)c1cccc([N+](=O)[O-])c1)C(=O)Nc1ccccc1 |  | > 100 µM |  | > 100 µM |  | > 100 µM |  | > 100 µM |  | > 100 µM |  | > 100 µM |  | > 100 µM |  | > 100 µM |  | > 100 µM |  | > 100 µM
COc1cc(C)[nH]c(=O)c1CNC(=O)c1c(C)n([C@H](C)C2CCN(CC(F)(F)F)CC2)c2ccccc12 | 60.8 µM | > 100 µM | 54.2 µM | > 100 µM | 80.6 µM | > 100 µM | > 100 µM | > 100 µM | 67.8 µM | > 100 µM | 38.5 µM | > 100 µM | > 100 µM | > 100 µM | > 100 µM | > 100 µM | 87.8 µM | > 100 µM | 67.4 µM | > 100 µM
CC(=O)Nc1ccc(C2=N/C(=C\c3ccc(Cl)cc3)C(=O)O2)cc1 |  | > 100 µM |  | > 100 µM |  | 90.9 µM |  | > 100 µM |  | 56.2 µM |  | > 100 µM |  | 38.5 µM |  | > 100 µM |  | > 100 µM |  | > 100 µM
